Measured values taken from patent US12139520B2 (priority 2020, dated 2024).
Numbered stars: 1 amine (or outer) side, 2 acyl side, 3 side chain; on linkers, the order of the positions; unused ones are H or OH. Bridge positions count the residues as written; N and C are the ends. Square brackets hold non-standard residues; d marks the D form. Peptide text beside a SMILES is read from it. * marks the point of attachment. C20 diacid = O=C(O)CCCCCCCCCCCCCCCCCCC(=O)*; γGlu = O=C(O)[C@H](CCC(=O)[*:2])N[*:1]; Hyp = O=C(O)[C@@H]1C[C@@H](O)CN1; Cit = NC(=O)NCCC[C@H](N)C(=O)O

Columns and labels:
hAMY3 receptor = molecular target: T1, hAMY3 receptor (Homo sapiens, UniProt O60896+P30988); test: cAMP assay for in vitro receptor activation, hAMY3-R; assay type: cell-based; settings: cAMP assay, hAMY3 receptor; read-out: hAMY3R EC50
T1 sequence (P30988 25-474): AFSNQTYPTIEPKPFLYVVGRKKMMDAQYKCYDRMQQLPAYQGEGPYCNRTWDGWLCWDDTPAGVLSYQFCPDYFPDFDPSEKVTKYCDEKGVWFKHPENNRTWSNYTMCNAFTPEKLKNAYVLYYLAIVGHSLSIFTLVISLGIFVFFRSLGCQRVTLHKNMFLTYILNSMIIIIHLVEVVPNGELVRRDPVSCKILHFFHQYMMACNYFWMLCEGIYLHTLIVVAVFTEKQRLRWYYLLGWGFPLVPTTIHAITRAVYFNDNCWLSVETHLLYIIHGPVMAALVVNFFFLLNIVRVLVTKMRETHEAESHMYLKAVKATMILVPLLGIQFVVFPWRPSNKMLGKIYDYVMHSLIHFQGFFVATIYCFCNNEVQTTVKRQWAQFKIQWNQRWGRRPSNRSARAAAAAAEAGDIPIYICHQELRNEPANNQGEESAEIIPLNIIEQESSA
T1 sequence (O60896 24-148 partner): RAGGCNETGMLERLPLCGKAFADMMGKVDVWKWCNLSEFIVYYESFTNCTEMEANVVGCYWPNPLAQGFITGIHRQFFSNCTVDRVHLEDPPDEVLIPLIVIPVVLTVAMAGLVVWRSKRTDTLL
Summary of the method: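 Read-out is TR-FRET cAMP signal, recorded one hour after reagent addition, following 30 min room-temperature stimulation of stable hAMY3 cells with graded compound doses in casein/IBMX (0.5 mM) buffer.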

hAM1 receptor = hAM1 receptor (Homo sapiens, UniProt O60895+Q16602); test: cAMP assay for in vitro receptor activation, hAM1-R; assay type: cell-based; settings: cAMP assay, hAM1 receptor; read-out: hAM1R EC50
hAM1 receptor, sequence (Q16602 23-461): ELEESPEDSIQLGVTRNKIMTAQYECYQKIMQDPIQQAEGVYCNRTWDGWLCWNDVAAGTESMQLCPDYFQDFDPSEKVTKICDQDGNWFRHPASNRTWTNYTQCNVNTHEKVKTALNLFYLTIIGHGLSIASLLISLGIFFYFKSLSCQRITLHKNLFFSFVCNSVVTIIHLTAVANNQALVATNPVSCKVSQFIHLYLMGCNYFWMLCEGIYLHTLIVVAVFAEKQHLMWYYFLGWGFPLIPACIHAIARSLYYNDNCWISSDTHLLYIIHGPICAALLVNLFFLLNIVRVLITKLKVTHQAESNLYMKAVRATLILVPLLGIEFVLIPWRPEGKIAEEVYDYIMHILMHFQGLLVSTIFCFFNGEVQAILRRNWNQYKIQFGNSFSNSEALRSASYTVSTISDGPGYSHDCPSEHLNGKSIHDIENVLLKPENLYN
hAM1 receptor, sequence (O60895 43-175 partner): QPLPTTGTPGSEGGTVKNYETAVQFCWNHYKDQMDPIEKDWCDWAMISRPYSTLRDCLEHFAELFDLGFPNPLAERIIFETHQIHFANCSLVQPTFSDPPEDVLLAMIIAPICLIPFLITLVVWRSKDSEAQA
Summary of the method: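 Stable hAM1 cells (monoclonal) plated 8000/well; buffer DPBS, 0.05% casein, 0.5 mM IBMX; cAMP read-out.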

Structure (SMILES)	EC50 (hAMY3 receptor) [nM]	EC50 (hAM1 receptor) [nM]
CC[C@H](C)[C@H](NC(=O)[C@H](CCC(N)=O)NC(=O)[C@H](Cc1c[nH]cn1)NC(=O)[C@H](C)NC(=O)[C@H](CC(C)C)NC(=O)[C@H](CCCNC(=N)N)NC(=O)[C@H](C)NC(=O)[C@@H](NC(=O)[C@@H](NC(=O)[C@@H]1CSSC[C@H](NC(=O)[C@H](CCCCN)NC(=O)CC[C@H](NC(=O)CCCCCCCCCCCCCCCCCCC(=O)O)C(=O)O)C(=O)N[C@@H](CC(N)=O)C(=O)N[C@@H]([C@@H](C)O)C(=O)N[C@@H](C)C(=O)N[C@@H]([C@@H](C)O)C(=O)N1)[C@@H](C)O)C(C)C)C(=O)N[C@@H](CC(N)=O)C(=O)N[C@@H](CCC(N)=O)C(=O)N[C@@H](Cc1ccccc1)C(=O)N[C@H](C(=O)N[C@@H](CC(=O)O)C(=O)N[C@@H](CCCCN)C(=O)N[C@@H](CC(=O)O)C(=O)N[C@@H](CCCCN)C(=O)N[C@@H](CC(=O)O)C(=O)N1CCC[C@H]1C(=O)N[C@H](C(=O)N[C@@H](C)C(=O)N1CCC[C@H]1C(=O)N1CCC[C@H]1C(=O)N[C@H](C(=O)N[C@@H](CC(N)=O)C(=O)N[C@H](C(=O)NCC(=O)N[C@@H](CO)C(=O)N[C@@H](CC(N)=O)C(=O)NCC(=O)N1C[C@H](O)C[C@H]1C(N)=O)C(C)C)[C@@H](C)O)C(C)C)[C@@H](C)O [compound 137] ({C20 diacid-γGlu}-KCNTATCTVARLAHQINQFTDKDKDPVAPPTNVGSNG[Hyp]-NH2; disulfide 2-7)	0.034	> 5000
CC[C@H](C)[C@H](NC(=O)[C@H](CCC(N)=O)NC(=O)[C@H](CCC(=O)O)NC(=O)[C@H](C)NC(=O)[C@H](CC(C)C)NC(=O)[C@H](CCCNC(=N)N)NC(=O)[C@H](CCC(N)=O)NC(=O)[C@@H](NC(=O)[C@@H](NC(=O)[C@@H]1CSSC[C@H](NC(=O)[C@H](CCCCN)NC(=O)CC[C@H](NC(=O)CCCCCCCCCCCCCCCCCCC(=O)O)C(=O)O)C(=O)N[C@@H](CC(N)=O)C(=O)N[C@@H]([C@@H](C)O)C(=O)N[C@@H](C)C(=O)N[C@@H]([C@@H](C)O)C(=O)N1)[C@@H](C)O)C(C)C)C(=O)N[C@@H](C)C(=O)N[C@@H](CCC(N)=O)C(=O)N[C@@H](Cc1ccccc1)C(=O)N[C@H](C(=O)N[C@@H](CC(=O)O)C(=O)N[C@@H](CCCCN)C(=O)N[C@@H](CC(=O)O)C(=O)N[C@@H](CCCCN)C(=O)N[C@@H](CC(=O)O)C(=O)N1CCC[C@H]1C(=O)N[C@H](C(=O)N[C@@H](C)C(=O)N1CCC[C@H]1C(=O)N1CCC[C@H]1C(=O)N[C@H](C(=O)N[C@@H](CC(N)=O)C(=O)N[C@H](C(=O)NCC(=O)N[C@@H](CO)C(=O)N[C@@H](CC(N)=O)C(=O)NCC(=O)N1C[C@H](O)C[C@H]1C(N)=O)C(C)C)[C@@H](C)O)C(C)C)[C@@H](C)O [compound 144] ({C20 diacid-γGlu}-KCNTATCTVQRLAEQIAQFTDKDKDPVAPPTNVGSNG[Hyp]-NH2; disulfide 2-7)	0.038	> 5000
CC[C@H](C)[C@H](NC(=O)[C@H](C)NC(=O)CNC(=O)[C@H](Cc1ccccc1)NC(=O)[C@H](CC(N)=O)NC(=O)[C@H](CC(N)=O)NC(=O)[C@H](CO)NC(=O)[C@H](CO)NC(=O)[C@H](Cc1c[nH]cn1)NC(=O)[C@@H](NC(=O)[C@H](CC(C)C)NC(=O)[C@H](Cc1ccccc1)NC(=O)[C@H](CC(N)=O)NC(=O)[C@H](C)NC(=O)[C@H](CC(C)C)NC(=O)[C@H](CCCNC(=N)N)NC(=O)[C@H](CCC(N)=O)NC(=O)[C@@H](NC(=O)[C@H](C)NC(=O)[C@@H]1CSSC[C@H](NC(=O)[C@@H](N)CCCCN)C(=O)N[C@@H](CC(N)=O)C(=O)N[C@@H]([C@@H](C)O)C(=O)N[C@@H](C)C(=O)N[C@@H]([C@@H](C)O)C(=O)N1)[C@@H](C)O)C(C)C)C(=O)N[C@@H](CC(C)C)C(=O)N[C@@H](CO)C(=O)N[C@@H](CO)C(=O)N[C@H](C(=O)N[C@@H](CCCCN)C(=O)N[C@H](C(=O)NCC(=O)N[C@@H](CO)C(=O)N[C@@H](CC(N)=O)C(=O)NCC(=O)N[C@@H](Cc1ccc(O)cc1)C(N)=O)[C@@H](C)CC)[C@@H](C)O [compound 148] (H-KCNTATCATQRLANFLVHSSNNFGAILSSTKIGSNGY-NH2; disulfide 2-7; N-terminus assumed)	0.04	> 5000
CC[C@H](C)[C@H](NC(=O)[C@H](C)NC(=O)CNC(=O)[C@H](Cc1ccccc1)NC(=O)[C@H](CC(N)=O)NC(=O)[C@H](CC(N)=O)NC(=O)[C@H](CO)NC(=O)[C@H](CO)NC(=O)[C@H](Cc1c[nH]cn1)NC(=O)[C@@H](NC(=O)[C@H](CC(C)C)NC(=O)[C@H](Cc1ccccc1)NC(=O)[C@H](CC(N)=O)NC(=O)[C@H](C)NC(=O)[C@H](CC(C)C)NC(=O)[C@H](CCCNC(=N)N)NC(=O)[C@H](CCC(N)=O)NC(=O)[C@@H](NC(=O)[C@H](C)NC(=O)[C@@H]1CSSC[C@H](NC(=O)[C@@H](N)CCCCN)C(=O)N[C@@H](CC(N)=O)C(=O)N[C@@H]([C@@H](C)O)C(=O)N[C@@H](C)C(=O)N[C@@H]([C@@H](C)O)C(=O)N1)[C@@H](C)O)C(C)C)C(=O)N[C@@H](CC(C)C)C(=O)N1CCC[C@H]1C(=O)N[C@@H](CO)C(=O)N[C@H](C(=O)N[C@@H](CCCCN)C(=O)N[C@H](C(=O)NCC(=O)N1CCC[C@H]1C(=O)N[C@@H](CC(N)=O)C(=O)NCC(=O)N[C@@H](Cc1ccc(O)cc1)C(N)=O)C(C)C)[C@@H](C)O [compound 149] (H-KCNTATCATQRLANFLVHSSNNFGAILPSTKVGPNGY-NH2; disulfide 2-7; N-terminus assumed)	0.04	> 5000
CC[C@H](C)[C@H](NC(=O)[C@H](CCC(N)=O)NC(=O)[C@H](CCC(=O)O)NC(=O)[C@H](C)NC(=O)[C@H](CC(C)C)NC(=O)[C@H](CCCNC(N)=O)NC(=O)[C@H](CCC(N)=O)NC(=O)[C@@H](NC(=O)[C@@H](NC(=O)[C@@H]1CSSC[C@H](NC(=O)[C@H](CCCCN)NC(=O)CC[C@H](NC(=O)CCCCCCCCCCCCCCCCCCC(=O)O)C(=O)O)C(=O)N[C@@H](CC(N)=O)C(=O)N[C@@H]([C@@H](C)O)C(=O)N[C@@H](C)C(=O)N[C@@H]([C@@H](C)O)C(=O)N1)[C@@H](C)O)C(C)C)C(=O)N[C@@H](C)C(=O)N[C@@H](CCC(N)=O)C(=O)N[C@@H](Cc1ccccc1)C(=O)N[C@H](C(=O)N[C@@H](CC(=O)O)C(=O)N[C@@H](CCCCN)C(=O)N[C@@H](CC(=O)O)C(=O)N[C@@H](CCCCN)C(=O)N[C@@H](CC(=O)O)C(=O)N[C@@H](CC(N)=O)C(=O)N[C@H](C(=O)N[C@@H](C)C(=O)N1CCC[C@H]1C(=O)N1CCC[C@H]1C(=O)N[C@H](C(=O)N[C@@H](CC(N)=O)C(=O)N[C@H](C(=O)NCC(=O)N[C@@H](CO)C(=O)N[C@@H](CC(N)=O)C(=O)NCC(=O)N1C[C@H](O)C[C@H]1C(N)=O)C(C)C)[C@@H](C)O)C(C)C)[C@@H](C)O [compound 153] ({C20 diacid-γGlu}-KCNTATCTVQ[Cit]LAEQIAQFTDKDKDNVAPPTNVGSNG[Hyp]-NH2; disulfide 2-7)	0.041	> 5000
